Source: US11046690B2, “Pyridazinones and methods of use thereof” (Goldfinch Bio, Inc., priority 2018, dated 2021)

Target: T1, TRPC4 (Homo sapiens, UniProt Q9UBN4)
T1 construct: expressed in transfected cells
T1 sequence (Q9UBN4 1-982 isoform Q9UBN4-5): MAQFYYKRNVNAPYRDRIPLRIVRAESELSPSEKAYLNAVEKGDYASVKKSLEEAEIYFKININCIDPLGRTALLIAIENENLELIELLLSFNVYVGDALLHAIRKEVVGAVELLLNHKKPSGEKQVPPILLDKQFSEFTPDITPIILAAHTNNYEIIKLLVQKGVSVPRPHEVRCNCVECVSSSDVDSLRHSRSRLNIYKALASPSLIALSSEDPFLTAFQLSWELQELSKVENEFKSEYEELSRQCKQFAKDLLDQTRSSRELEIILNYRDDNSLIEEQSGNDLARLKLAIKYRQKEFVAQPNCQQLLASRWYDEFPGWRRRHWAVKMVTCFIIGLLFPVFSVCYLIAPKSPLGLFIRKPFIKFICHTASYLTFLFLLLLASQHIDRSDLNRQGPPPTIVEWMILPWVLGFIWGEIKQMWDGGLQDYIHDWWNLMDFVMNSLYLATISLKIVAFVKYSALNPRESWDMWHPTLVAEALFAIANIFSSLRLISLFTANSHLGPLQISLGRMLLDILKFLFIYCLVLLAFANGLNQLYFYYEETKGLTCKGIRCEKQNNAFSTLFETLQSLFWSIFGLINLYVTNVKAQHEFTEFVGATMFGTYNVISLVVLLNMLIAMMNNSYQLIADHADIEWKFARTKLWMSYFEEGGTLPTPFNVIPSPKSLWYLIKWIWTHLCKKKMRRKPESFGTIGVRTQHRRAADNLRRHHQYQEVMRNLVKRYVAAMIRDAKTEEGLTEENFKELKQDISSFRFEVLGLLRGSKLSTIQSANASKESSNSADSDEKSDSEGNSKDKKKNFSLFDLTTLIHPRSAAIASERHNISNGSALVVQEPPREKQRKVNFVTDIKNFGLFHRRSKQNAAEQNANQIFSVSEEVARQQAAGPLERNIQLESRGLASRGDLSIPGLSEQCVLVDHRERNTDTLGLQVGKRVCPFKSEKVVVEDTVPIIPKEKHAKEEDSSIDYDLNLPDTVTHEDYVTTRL
Test: TRPC4 activity assay (FLIPR calcium fluorescence, Englerin A stimulation)
Assay type: cell-based
Settings: HEK-TREx hTRPC4 cells, 100 nM Englerin A stimulation; read-out: TRPC4 (IC50 class)
Description: ICLN-1694 cells (HEK-TREx hTRPC4) expressing TRPC4 were generated as follows. Commercially available HekTrex-293 cells were seeded at 0.7×10^6 cells/well in a 1×6-well plate 24 hrs prior to transfection using 2 mL cell growth media containing no antibiotics (1× DMEM/high glucose (Hyclone #SH30022.02); 10%0/fetal bovine serum (Sigma) 2 mM sodium pyruvate, 10 mM HEPES). […] On day 2, 2 μg of plasmid DNA plus 6 μl of Xtreme-GENE HP reagent in Optimem (200 μl total volume) was prepared and incubated for 15 min at room temperature. This plasmid solution was then gently overlayed dropwise onto each well and the plate was gently swirled to mix complex with the media for approximately 30 seconds. Transfected cells were incubated at 37° C. in a 10% C02 incubator for 24 hrs. The transfected cells were harvested and transferred into 2×150 mm dishes containing cell growth media with no antibiotics at 37° C.
The next day selection was initiated to generate a stable pool by adding cell growth media containing 150 μg/mL Hygromycin and 5 μg/mL Blasticidin and cells were allowed to grow. Media with the selection agent was changed every 1-2 days as needed to remove dead cells. After 7 days, the hygromycin concentration was reduced to 75 μg/mL and cells growth was allowed to continue.
Single clones were selected as follows. The stable pool was diluted to 10 cells/mL and seeded (100 μl/well) into 24×96 well plates (˜1 cell/well) and allowed to grow for 7 days in cell growth media. Fresh media (100 μl) was added and the cells allowed to grow for another 1-2 weeks and then stored frozen or used immediately.
10-point dose response curves were generated using the Echo-550 acoustic dispenser. Compound source plates were made by serially diluting compound stocks to create 10 mM, 1 mM, and 0.1 mM solutions in DMSO into Echo-certified LDV plates. The Echo then serially spotted 100% DMSO stock solutions into source dose response plates to generate a 4-fold dilution scheme. 100% DMSO was added to the spotted dose response plates to bring the final volume to 5 μl. […] of the dose response stock plate was then spotted into pre-incubation and stimulation assay plates. 50 μl of pre-incubation buffer and 100 μl of stimulation buffer was then added to the plates resulting in a final assay test concentration range of 30 μM to 0.0001 μM with a final DMSO concentration of 0.3%.
ICLN-1694 cells (HEK-TREx hTRPC4) were plated onto 384 well, black pdl-coated microplates and maintained in cell growth media supplemented with 1 μg/mL tetracycline the day prior to use for experiments. TRPC4 expression was induced by the application of 1 μg/mL tetracycline at the time of plating. […] Cells were incubated at room temperature, protected from light, for 60-90 minutes. After the incubation period, the dye was removed and replaced with 10 μl of EBSS. Cell, pre-incubation and stimulation plates were loaded onto the FLIPR-II and the assay was initiated. The FLIPR measured a 10 second baseline and then added 10 μl of 2X compounds (or controls). Changes in fluorescence were monitored for an additional 5 minutes. After a 5 minute pre-incubation, 20 μl of 2X Englerin A (with 1X compound or controls) was added to the cell plate. The final Englerin A stimulation concentration in the assay was 100 nM. After the Englerin A addition, changes in fluorescence were monitored for an additional 5 minutes.
Compound modulation of TRPC4 calcium response was determined as follows. After the Englerin A, fluorescence was monitored for a 5-minute period. The maximum relative fluorescence response (minus the control response of 1 μM of an internal control compound known to maximally block TRPC4 calcium response, the “REF INHIB” in the formula below) was captured and exported from the FLIPR.
Compound effect is calculated as % inhibition using the following formula:
[formula] wherein “RFU” is the relative fluorescent units.

IC50 [nM]	SMILES
50 to 500	CC1Cc2c(ncnc2Oc2ccc(F)cc2Cl)CN1c1cn[nH]c(=O)c1Cl (single isomer, unassigned) [Compound 117]
< 50	O=c1[nH]ncc(N2CCc3c(ncnc3Oc3ccc(F)cc3Cl)C2)c1Cl [Compound 104]
